Test results published in US4558058A, “Substituted 1,4-dihydropyridines and their use as medicaments” (Cassella Aktiengesellschaft, priority 1982, dated 1985).

The compounds below were run on helical strips of pulmonary artery of guinea pigs (assay: calcium-antagonistic action: inhibition of CaCl2-induced contraction of potassium-depolarised helical strips of pulmonary artery). Details: Cavia porcellus; guinea pig pulmonary artery strips, calcium-free Tyrode's solution, 40 mmol potassium, 0.5 mmol CaCl2; mean value from 4 to 6 strips; read-out: IC50 (concentration of the test substance which inhibits contraction by 50%).
Assay type: cell-based
Experimental: This entailed helical strips of pulmonary artery of guinea pigs being equilibrated in calcium-free Tyrode's solution and depolarised with 40 mmol of potassium. Addition of 0.5 mmol of CaCl2 then initiates contraction. The relaxant action of the test substance is determined by cumulative addition of concentrations increasing in steps of 1/2 log 10.

| Compound | IC50 |
| --- | --- |
| COC(=O)C1=C(C)NC(C)=C(c2nnc(C)o2)C1c1cccc(Cl)c1Cl (stereo not shown) [Example 2e, Methyl 1,4-dihydro-2,6-dimethyl-4-(2,3-dichlorophenyl)-5-(5-methyl-1,3,4-oxadiazol-2-yl)pyridine-3-carboxylate] | 1.6 nM |
| COC(=O)C1=C(C)NC(C)=C(c2nc(Cc3ccccc3)no2)C1c1cccc([N+](=O)[O-])c1 (stereo not shown) [Example 2r, Methyl 1,4-dihydro-2,6-dimethyl-4-(3-nitrophenyl)-5-(3-benzyl-1,2,4-oxadiazol-5-yl)pyridine-3-carboxylate] | 0.5 nM |
| COCCOC(=O)C1=C(C)NC(C)=C(c2nc(Cc3ccccc3)no2)C1c1cccc([N+](=O)[O-])c1 (stereo not shown) [Example 2v, 2-Methoxyethyl 1,4-dihydro-2,6-dimethyl-4-(3-nitrophenyl)-5-(3-benzyl-1,2,4-oxadiazol-5-yl)pyridine-3-carboxylate] | 0.7 nM |
| CCOC(=O)c1sc(C2=C(C)NC(C)=C(C(=O)OCCOC)C2c2cccc([N+](=O)[O-])c2)nc1C (stereo not shown) [Example 5b, 2-Methoxyethyl 1,4-dihydro-2,6-dimethyl-4-(3-nitrophenyl)-5-(4-methyl-5-ethoxycarbonyl-2-thiazolyl)pyridine-3-carboxylate] | 1.6 nM |
| CC1=C(C(=O)OCCOC(C)C)C(c2cccc(Cl)c2Cl)C(c2nnc(C)o2)=C(C)N1 (stereo not shown) [Example 2z1, 2-Isopropoxyethyl 1,4-dihydro-2,6-dimethyl-4-(2,3-dichlorophenyl)-5-(2-methyl-1,3,4-oxadiazol-5-yl)pyridine-3-carboxylate] | 1.5 nM |
| COCCOC(=O)C1=C(C)NC(C)=C(c2nnco2)C1c1ccccc1[N+](=O)[O-] (stereo not shown) [Example 2o, 2-Methoxyethyl 1,4-dihydro-2,6-dimethyl-4-(2-nitrophenyl)-5-(1,3,4-oxadiazol-2-yl)pyridine-3-carboxylate] | 0.3 nM |
| COC(=O)C1=C(C)NC(C)=C(c2nnco2)C1c1cccc(Cl)c1Cl (stereo not shown) [Example 2b, Methyl 1,4-dihydro-2,6-dimethyl-4-(2,3-dichlorophenyl)-5-(1,3,4-oxadiazol-2-yl)pyridine-3-carboxylate] | 0.4 nM |
| CCc1nnc(C2=C(C)NC(C)=C(C(=O)OCCOC)C2c2cccc([N+](=O)[O-])c2)o1 (stereo not shown) [Example 4k, 2-Methoxyethyl 1,4-dihydro-2,6-dimethyl-4-(3-nitrophenyl)-5-(2-ethyl-1,3,4-oxadiazol-5-yl)pyridine-3-carboxylate] | 1 nM |
| CCc1nnc(C2=C(C)NC(C)=C(C(=O)OCCOC)C2c2cccc(Cl)c2Cl)o1 (stereo not shown) [Example 4m, 2-Methoxyethyl 1,4-dihydro-2,6-dimethyl-4-(2,3-dichlorophenyl)-5-(2-ethyl-1,3,4-oxadiazol-5-yl)pyridine-3-carboxylate] | 1.5 nM |
| COC(=O)C1=C(C)NC(C)=C(c2nc(Cc3ccccc3)no2)C1c1ccccc1Cl (stereo not shown) [Example 2w, Methyl 1,4-dihydro-2,6-dimethyl-4-(2-chlorophenyl)-5-(3-benzyl-1,2,4-oxadiazol-5-yl)pyridine-3-carboxylate] | 2.5 nM |
| CCc1noc(C2=C(C)NC(C)=C(C(=O)OC)C2c2cccc(Cl)c2Cl)n1 (stereo not shown) [Example 4c, Methyl 1,4-dihydro-2,6-dimethyl-4-(2,3-dichlorophenyl)-5-(3-ethyl-1,2,4-oxadiazol-5-yl)pyridine-3-carboxylate] | 2.4 nM |
| CCc1noc(C2=C(C)NC(C)=C(C(=O)OCCOC)C2c2cccc(Cl)c2Cl)n1 (stereo not shown) [Example 4b, 2-Methoxyethyl 1,4-dihydro-2,6-dimethyl-4-(2,3-dichlorophenyl)-5-(3-ethyl-1,2,4-oxadiazol-5-yl)pyridine-3-carboxylate] | 1.8 nM |
| COC(=O)C1=C(C)NC(C)=C(c2nc(Cc3ccccc3)no2)C1c1cccc(Cl)c1Cl (stereo not shown) [Example 2s, Methyl 1,4-dihydro-2,6-dimethyl-4-(2,3-dichlorophenyl)-5-(3-benzyl-1,2,4-oxadiazol-5-yl)pyridine-3-carboxylate] | 0.7 nM |
| COC(=O)C1=C(C)NC(C)=C(c2nc(Cc3ccccc3)no2)C1c1ccccc1[N+](=O)[O-] (stereo not shown) [Example 2t, Methyl 1,4-dihydro-2,6-dimethyl-4-(2-nitrophenyl)-5-(3-benzyl-1,2,4-oxadiazol-5-yl)pyridine-3-carboxylate] | 1 nM |
| CC1=C(C(=O)OCC(C)C)C(c2cccc([N+](=O)[O-])c2)C(c2nnco2)=C(C)N1 (stereo not shown) [Example 1z, Isobutyl 1,4-dihydro-2,6-dimethyl-4-(3-nitrophenyl)-5-(1,3,4-oxadiazol-2-yl)pyridine-3-carboxylate] | 0.15 nM |
| CC1=C(C(=O)OC(C)C)C(c2cccc(Cl)c2Cl)C(c2nnco2)=C(C)N1 (stereo not shown) [Example 2z2, Isopropyl 1,4-dihydro-2,6-dimethyl-4-(2,3-dichlorophenyl)-5-(1,3,4-oxadiazol-2-yl)pyridine-3-carboxylate] | 0.2 nM |
| CC1=C(C(=O)OC(C)C)C(c2cccc([N+](=O)[O-])c2)C(c2nnco2)=C(C)N1 (stereo not shown) [Example 2n, Isopropyl 1,4-dihydro-2,6-dimethyl-4-(3-nitrophenyl)-5-(1,3,4-oxadiazol-2-yl)pyridine-3-carboxylate] | 0.09 nM |
| CC1=C(c2nnco2)C(c2cccc([N+](=O)[O-])c2)C(c2nnco2)=C(C)N1 [Example 3a, 1,4-Dihydro-2,6-dimethyl-3,5-di(1,3,4-oxadiazol-2-yl)-4-(3-nitrophenyl)pyridine] | 2 nM |

Same assay, conditions: guinea pig pulmonary artery strips, calcium-free Tyrode's solution, 40 mmol potassium, 0.5 mmol CaCl2; mean value from 4 to 6 strips; read-out: IC50 (concentration of the test substance which inhibits contraction by 50%)

| Compound | IC50 |
| --- | --- |
| 2-Methylethyl 1,4-dihydro-2,6-dimethyl-4-(3-cyanophenyl)-5-(3-methyl-1,2,4-oxadiazol-5-yl)pyridine-3-carboxylate [Example 1t] | 1.5 nM |
